Experimental data published in patent publication US8841292B2, “Induced hypothermia” (Weil Institute of Critical Care Medicine, priority 2011, dated 2014).

Assays:
[1] = system: porcine model of CPR; assay: Proposed porcine model study of cardiac arrest and resuscitation; type: in vivo, Sus scrofa; settings: hypothesis
Source text: A porcine model of cardiac arrest and resuscitation in domestic pigs, weighing between 40±2 kg, is utilized for a proposed study that applicant is conducting. The porcine model is selected because (1) it has a large body mass and the timing of reduction in body temperature during hypothermia is close to that of the human. […] (3) A large animal model facilitates non-invasive measurements of myocardial function by echocardiographic methods, preserving an intact chest wall for conventional CPR, and specifically, precordial compression. (4) Our research team has had extensive experience for more than 20 years with the porcine model, under conditions of cardiac arrest and resuscitation.
Our aims are to investigate the effects of WIN55, 212-2, the cannabinoid CB1/CB2 receptor agonist, when administered immediately following resuscitation with or without physical surface body cooling on blood temperature, post resuscitation myocardial and cerebral functions, and duration of survival in our porcine model of CPR. We hypothesize that when WIN55, 212-2 is administered immediately following resuscitation, it will rapidly achieve the target blood temperature (34° C., <3 hours), therefore improving post-resuscitation myocardial and cerebral functions, and duration of survival. We further hypothesize that when WIN55, 212-2 is administered in combination with physical surface body cooling, the combination will further reduce the duration for achieving target blood temperature (<1 hour). It will therefore further improve post-resuscitation myocardial and cerebral functions, and duration of survival.
To test our hypotheses, the independent variables are the WIN55, 212-2 and WIN55, 212-2 with physical surface cooling. […]
In experiments, male domestic pigs, weighing 40±2 kg, are fasted overnight except for free access to water. […] End-tidal PC02 is monitored with an infrared analyzer (Model 01R-7101A, Nihon Kohden Corp, Tokyo, Japan). […]

[2] = system: rat model of cardiac arrest and resuscitation; assay: Rat model of cardiac arrest and resuscitation; type: in vivo
Method: The effects of WIN 55, 212-2 were investigated initially in our rat model of cardiac arrest and resuscitation. […] Ventricular fibrillation was induced and untreated for 6 mins and followed by 8 mins of CPR. Resuscitation was then attempted with defibrillation. WIN 55, 212-2 was infused intravenously 10 mins after resuscitation in a dose of 1 mg/kg/hour and continued for 6 hours. The body temperature decreased from 37 to 34° C. within 4 hours after infusion (FIG. 1).

[3] = system: normal rats; settings: cited from earlier work
[4] = system: cannabinoid receptors; settings: versus other neurotransmitter and ion channels; cited from earlier work

| SMILES | blockade of the effects of WIN55, 212-2 ([1]; pre-treatment with selective CB1 antagonist) | time after infusion for body temperature decrease to 34 ° C. ([2]; 1 mg/kg/hour i.v. infusion for 6 hours) [h] | body temperature decreased to ([2]; 1 mg/kg/hour i.v. infusion from 10 mins after resuscitation for 6 hours, from 37 ° C.) [°C] | survival ([2]; all animals that received the drug) | neurological deficits ([2]; survivors) | post resuscitation myocardial function (ejection fraction, FIG. 2) ([2]; versus controls) | time to achieve target blood temperature (34° C.) ([1]; administered immediately following resuscitation, drug alone) [h] | time to achieve target blood temperature ([1]; in combination with physical surface body cooling) [h] | body temperature reduced to ([3]; intramuscular injection, from 37 ° C.) [°C] | duration hypothermia was maintained ([3]; intramuscular injection) | hypothermia, dose dependence ([3]; intramuscular injection) | hypothermia effect with selective CB1 antagonist ([3]; selective CB1 antagonist given) | selectivity for cannabinoid receptors [4] |
| --- | --- | --- | --- | --- | --- | --- | --- | --- | --- | --- | --- | --- | --- |
| Cc1c(C(=O)NN2CCCCC2)nn(-c2ccc(Cl)cc2Cl)c1-c1ccc(Cl)cc1 [SR141716A] | completely blocked |  |  |  |  |  |  |  |  |  |  |  |  |
| Cc1c(C(=O)c2cccc3ccccc23)c2cccc3c2n1[C@H](CN1CCOCC1)CO3 [WIN 55, 212-2] |  | ≤ 4 | 34 | more than 72 hours | minimal neurological deficits | significantly better than the controls | < 3 | < 1 | 34 | up to 5 hours | produced hypothermia in a dose-dependent manner | completely blocked | highly selective |
